Reference: publication PMC12669040, “Tumour-specific STING agonist synthesis via a two-component prodrug system” (Nature Chemistry, 2025)
Values joined by “and” are separate entries in the source; they are usually repeats but may differ in a detail not shown here. Equal values may be shown once. Read-outs that look alike come from different tables or passages of the source.

Key:
MC38 tumours = conditions: for Tumor Size: individual mice, * = excluded once a death was recorded in the group
[1] = parameters: method as in PMID 32820094; conditions: cited from earlier work
[2] = target: T1, wild-type human STING LBD (hSTINGwt 138-379) (Homo sapiens, UniProt Q86WV6, H232R); test: Isothermal titration calorimetry (ITC), reverse titration; format: binding
T1 construct: SUMO (N, cleaved yes); made in house; host or cells: Escherichia coli BL21 (DE3)
Description: Escherichia coli BL21 (DE3) (Thermo Scientific EC0114) was transformed with a pET28a plasmid (Genscript) harbouring the codon-optimized sequence of SUMO-hSTINGwt (aa138-379). Transformed BL21 cells were inoculated into LB medium (50 µg ml^−1 kanamycin) and incubated at 180 rpm, 37 °C overnight. The overnight culture was then diluted (1:100 dilution) in 2× YT medium (50 µg ml^−1 kanamycin) and incubated at 180 rpm, 37 °C until optical density at 600 nm (OD600) reached 0.6 (approximately 3 h). The bacterial culture was then cooled to 16 °C, induced with 0.5 mM isopropyl 1-thio-D-galactopyranoside and incubated overnight at 180 rpm, 16 °C. The bacterial cells were pelleted at 4,000g for 30 min, resuspended in 20 ml of lysis buffer (25 mM HEPES pH 7.5, 150 mM NaCl, 20 mM imidazole and 2 mM TCEP supplied with 2 tablets of cOmplete mini EDTA-free protease inhibitors) and disrupted by sonication on ice. The total lysate was clarified by centrifugation at 22,000g for 30 min. The supernatant was collected and filtered through a 0.45-µm filter (Millipore SLHAR33SS). The clarified lysate was then incubated on a roller with 10 ml bed volume of Ni-NTA resin (Thermo Scientific 88223) at 4 °C for 1 h. The Ni-NTA resin was then packed in a column, flushed with 20 ml of wash buffer (25 mM HEPES pH 7.5, 150 mM NaCl and 20 mM imidazole) and eluted with 40 ml of elution buffer (25 mM HEPES pH 8.0, 150 mM NaCl and 250 mM imidazole). The eluted protein was concentrated to approximately 5 ml (Millipore Amicon 10 kDa molecular weight cut-off (MWCO)) and buffer-exchanged into storage buffer (25 mM HEPES pH 7.5 and 150 mM NaCl). TCEP was then added to a final concentration of 2 mM, and 250 units of SUMO protease (Merck SAE0067) were added. The cleavage reaction mixture was left to stand at 4 °C overnight until LC–MS analysis indicated the completion of the cleavage reaction. The cleavage mixture was incubated with 10 ml bed volume of Ni-NTA resin on a roller at 4 °C for 1 h and packed in a disposable column. The flowthrough was collected, and the resin was further flushed with 20 ml of wash buffer. The eluted fractions were combined, concentrated and further purified by size-exclusion chromatography (Cytiva, Superdex 200 Increase 10/300 GL). The purified protein in storage buffer was concentrated to 330 µM (dimer concentration) as determined by bicinchoninic acid (BCA) assay, aliquoted, flash-frozen in liquid nitrogen and stored at −80 °C for future use.
The binding constants of purified dimers were measured by ITC (Malvern Panalytical AutoITC200) in a reverse-titration format. Stock DMSO solutions of each dimer were dissolved in titration buffer (25 mM HEPES pH 7.5 and 150 mM NaCl) to a final concentration of 25 µM and added to the titration cell. The syringe was filled with 250 µM of purified STING in a matching buffer. Titration was performed at 25 °C with the following parameters: 750 rpm stirring, 0.2 µl initial injection followed by 2-µl injections of the […] every 120 s. Titration of STING protein into blank buffer was separately performed and subtracted from the raw data before the analysis. The background-subtracted titration curves were fitted with the built-in Origin software using the standard one-site model.
Extended Data Fig. 2 Isothermal titration calorimetry (ITC) data for binding constant measurements. Purified hSTINGwt138-379 (250 μM of homodimer) was titrated into each dimer (25 μM) dissolved in a matching buffer (25 mM HEPES pH 7.5, 150 mM NaCl) at 25 °C and 750 rpm stirring. Binding constants were reported as the average from duplicate measurements.

[3] = LC–MS/MS analysis of in situ SC2S formation (tissue distribution); format: in vivo, BALB/c mice; conditions: for concentration at 4 h / concentration at 2 h / concentration at 1 h: BALB/c, mouse
Description: The blood, tumour, lung, kidney, liver and spleen were collected for each mouse. Three mice treated with vehicle were included as control samples. Whole blood samples were centrifuged at 2,000g, 4 °C for 10 min. Supernatant plasma was aspirated into an Eppendorf tube and frozen at −80 °C. Tumour and organ tissues were snap-frozen in liquid nitrogen and stored at −80 °C until further analysis. The plasma samples (10-µl aliquots) were prepared by protein precipitation extraction. The organic layer was evaporated to dryness and reconstituted in a solution equivalent to the initial chromatographic starting conditions. The tissue samples were analysed by homogenization to give a 200 […] concentration. The homogenised tissue samples (10-µl aliquots) were then taken through the same preparation procedure as the plasma samples. All samples were analysed using the PKB Core Facility’s 6500 LC–MS/MS system, in negative ion mode. The chromatography was carried out using a gradient method on a Kinetex EVO C18 column (50 × 2.1 mm). Analysis was conducted in four batches, consisting of calibration standards, quality control samples, blank control samples, internal standard-only samples and study samples. Calibration curves were constructed using linear regression with a 1/x^2 weighting. A calibration range of 1–500 ng ml^−1 (5–2,500 ng g^−1 in tissue) was used. Precision and accuracy were well within the PK/B core facility’s acceptance criteria of ±20%. The LC–MS/MS method was developed and qualified ahead of the sample analysis. The performance of the method met normal Core Facility acceptance criteria for analysis.

T1 sequence (Q86WV6 138-379 H232R): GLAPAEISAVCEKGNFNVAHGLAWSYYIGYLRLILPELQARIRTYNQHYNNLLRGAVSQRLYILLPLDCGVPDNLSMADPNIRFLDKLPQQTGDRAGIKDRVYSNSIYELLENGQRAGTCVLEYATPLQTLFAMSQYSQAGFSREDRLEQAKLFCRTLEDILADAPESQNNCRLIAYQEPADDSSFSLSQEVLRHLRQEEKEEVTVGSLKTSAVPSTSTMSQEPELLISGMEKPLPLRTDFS

With `COc1cc2cc(C(=O)CCC(=O)O)sc2cc1OC` [MSA2] the “Tumor Size” value (MC38 tumours; day 39) was 279.4986* mm^3, the “Tumor Size” value (MC38 tumours; day 53) was 0* mm^3 and the “Survival: Days” value (MC38 tumours; mouse, in vivo) was 60 days and 49 days and 35 days. For the same molecule, the “tumour and plasma concentration after intratumoural injection” value [1] was “its concentration in the tumour decreased rapidly past the 2-h timepoint, and substantial leakage into the plasma occurred”.
Work on `COc1cc2sc(C(=O)CCC(=O)O)cc2cc1SCCSc1cc2cc(C(=O)CCC(=O)O)sc2cc1OC` [SC2S] yielded a Kd ([2]; 25 °C, average of duplicate measurements, read-out: Kd hSTINGwt (binding constant, ITC)) of 176 nM, a Kd ([2]; ITC run _01, read-out: Kd) of 191 nM and a Kd ([2]; ITC run _02, read-out: Kd) of 160 nM. For the same molecule, the “Blood Calculated Concentration” value ([3]; 1h, individual samples) was “BLQ”, the “Kidney Calculated Concentration” value ([3]; 1h, individual samples) was “BLQ” and the “Lung Calculated Concentration” value ([3]; 1h, individual samples) was “BLQ”. The “Tumour Calculated Concentration” value ([3]; 1h, individual samples) was 64.6 ng/mL and 323 ng/g and 11.6 ng/mL and 58.1 ng/g and 12.1 ng/mL and 60.6 ng/g, the “Blood Calculated Concentration” value ([3]; 2h, individual samples) was “BLQ” and the “Liver Calculated Concentration” value ([3]; 2h, individual samples) was “BLQ”. The “Spleen Calculated Concentration” value ([3]; 2h, individual samples) was “BLQ”, the “Tumour Calculated Concentration” value ([3]; 2h, individual samples) was 17.8 ng/mL and 89.2 ng/g and 62.2 ng/mL and 311 ng/g and 4.45 ng/mL and 22.2 ng/g and the “Kidney Calculated Concentration” value ([3]; 4h, individual samples) was “BLQ”. For the same molecule, the “Spleen Calculated Concentration” value ([3]; 4h, individual samples) was “BLQ”, the “Tumour Calculated Concentration” value ([3]; 4h, individual samples) was 12.1 ng/mL and 60.4 ng/g and 19.6 ng/mL and 98.2 ng/g and 4.66 ng/mL and 23.3 ng/g and the “Kidney Calculated Concentration” value ([3]; 8h, individual samples) was “BLQ”. For the same molecule, the “Liver Calculated Concentration” value ([3]; 8h, individual samples) was “BLQ”, the “Spleen Calculated Concentration” value ([3]; 8h, individual samples) was “BLQ” and the “Tumour Calculated Concentration” value ([3]; 8h, individual samples) was “BLQ”. The “Kidney Calculated Concentration” value ([3]; 24h, individual samples) was “BLQ”, the “Spleen Calculated Concentration” value ([3]; 24h, individual samples) was “BLQ” and the concentration at 4 h ([3]; liver, 4h, read-out: Liver Mean concentration) was 9.3 ng/g. For the same molecule, the concentration at 4 h ([3]; liver, other: β-GlcA-N1 intraperitoneal (IP) + E4 intratumoral (IT), 4h, individual samples, read-out: Liver Calculated Concentration) was 1.86 ng/mL and 9.3 ng/g, the concentration at 2 h ([3]; plasma, 2h, individual samples, read-out: Blood Calculated Concentration) was 3.03 ng/mL and the concentration at 2 h ([3]; plasma, 2h, read-out: Blood Mean concentration) was 3.03 ng/mL. The concentration at 1 h ([3]; plasma, other: β-GlcA-N1 intraperitoneal (IP) + E4 intratumoral (IT), 1h, individual samples, read-out: Blood Calculated Concentration) was 1.29 ng/mL, the concentration at 1 h ([3]; plasma, other: β-GlcA-N1 intraperitoneal (IP) + E4 intratumoral (IT), 1h, read-out: Blood Mean concentration) was 1.29 ng/mL and the concentration at 2 h ([3]; tumour, 2h, read-out: Tumour Mean concentration) was 141 ng/g. For the same molecule, the concentration at 4 h ([3]; tumour, 4h, read-out: Tumour Mean concentration) was 60.7 ng/g and the concentration at 1 h ([3]; tumour, other: β-GlcA-N1 intraperitoneal (IP) + E4 intratumoral (IT), 1h, read-out: Tumour Mean concentration) was 147 ng/g.
